These results are taken from the Kinase Knowledgebase extract (Sharma et al. 2016).

The structures appear in SMILES notation. A value given as a limit tells only on which side of the number the result lay.

This assay addresses ROCK2 (human) (UniProt O75116). In words: Inhibition of ROCK2 Kinase Activity.

Chain of ROCK2 (human) (O75116 whole entry, looked up): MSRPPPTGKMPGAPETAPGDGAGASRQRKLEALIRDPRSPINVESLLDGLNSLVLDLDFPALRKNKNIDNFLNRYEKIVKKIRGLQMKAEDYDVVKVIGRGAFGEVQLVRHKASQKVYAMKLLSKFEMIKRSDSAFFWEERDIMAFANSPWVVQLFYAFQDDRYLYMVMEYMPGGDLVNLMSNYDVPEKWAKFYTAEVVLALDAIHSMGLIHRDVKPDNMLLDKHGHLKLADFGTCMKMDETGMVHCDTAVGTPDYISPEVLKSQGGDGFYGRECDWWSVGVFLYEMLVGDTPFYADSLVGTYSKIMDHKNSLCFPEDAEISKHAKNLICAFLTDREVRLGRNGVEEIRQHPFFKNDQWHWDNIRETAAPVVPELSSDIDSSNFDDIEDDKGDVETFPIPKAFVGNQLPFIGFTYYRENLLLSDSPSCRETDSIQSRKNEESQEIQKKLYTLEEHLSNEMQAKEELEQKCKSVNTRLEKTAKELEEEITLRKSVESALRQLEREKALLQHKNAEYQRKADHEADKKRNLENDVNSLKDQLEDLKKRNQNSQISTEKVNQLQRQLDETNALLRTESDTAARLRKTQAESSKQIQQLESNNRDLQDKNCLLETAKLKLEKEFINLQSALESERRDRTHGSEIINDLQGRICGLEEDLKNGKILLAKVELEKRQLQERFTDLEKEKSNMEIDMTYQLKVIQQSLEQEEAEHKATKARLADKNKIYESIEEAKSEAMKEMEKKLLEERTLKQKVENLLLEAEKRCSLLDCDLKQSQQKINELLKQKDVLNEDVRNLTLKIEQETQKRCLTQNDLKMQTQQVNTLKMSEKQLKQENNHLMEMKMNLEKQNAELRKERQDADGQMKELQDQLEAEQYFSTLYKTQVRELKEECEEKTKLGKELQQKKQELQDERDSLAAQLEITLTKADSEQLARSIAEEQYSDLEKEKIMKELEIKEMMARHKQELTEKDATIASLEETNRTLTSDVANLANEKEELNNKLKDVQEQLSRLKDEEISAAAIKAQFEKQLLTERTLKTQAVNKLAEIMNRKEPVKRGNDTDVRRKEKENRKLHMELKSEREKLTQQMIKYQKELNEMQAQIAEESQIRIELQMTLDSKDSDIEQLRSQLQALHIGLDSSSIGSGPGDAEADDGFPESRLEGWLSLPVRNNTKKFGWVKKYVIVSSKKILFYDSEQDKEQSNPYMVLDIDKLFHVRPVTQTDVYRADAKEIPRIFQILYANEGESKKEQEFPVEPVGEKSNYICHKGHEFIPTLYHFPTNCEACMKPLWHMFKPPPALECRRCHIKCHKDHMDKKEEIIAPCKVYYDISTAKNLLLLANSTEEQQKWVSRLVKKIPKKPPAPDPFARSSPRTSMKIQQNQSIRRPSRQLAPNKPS

Regarding `COc1cc(OC)c(C(=O)NCc2nc(-c3c[nH]c4ncccc34)n[nH]2)cc1OC`, the IC50 is greater than 5 µM.
In the case of `O=C(NCc1nc(-c2ccncc2)n[nH]1)c1ccccc1C(F)(F)F` it was greater than 5 µM.
`COc1ccc(C(=O)NCc2nc(-c3ccncc3)n[nH]2)cc1C` returned an IC50 greater than 5 µM.
To `O=C(NCc1nc(-c2c[nH]c3ncccc23)n[nH]1)c1cc2ccccc2s1` belongs greater than 5 µM.
For the compound `Oc1ccc(C(O)CCc2nc(-c3ccncc3)n[nH]2)cc1` (stereo not given), the IC50 is greater than 5 µM.
In the case of `O=C(NCc1nc(-c2c[nH]c3ncccc23)n[nH]1)c1ccc(F)cc1` it was greater than 5 µM; in that of `NC(=O)c1cc(-c2ccncc2)n[nH]1`, greater than 5 µM.
To `COc1ccc(C(=O)NCc2nc(-c3ccncc3)n[nH]2)cc1O` belongs greater than 5 µM; to `CC(C)(C)OC(=O)N1CC(O)CC1C(=O)NCc1nc(-c2ccncc2)n[nH]1` (stereo not given), greater than 5 µM; to `CC(C)(C)OC(=O)NC(Cc1ccccn1)C(=O)NCc1nc(-c2c[nH]c3ncccc23)n[nH]1` (stereo not given), greater than 5 µM.
For `CC(=O)NCC(=O)NCc1nc(-c2ccncc2)n[nH]1`, the IC50 was greater than 5 µM.
`Cc1cc(C)c(C(=O)NCc2nc(-c3c[nH]c4ncccc34)n[nH]2)c(C)c1` registered an IC50 greater than 5 µM.
In the case of `CCC(C(=O)NCc1nc(-c2ccncc2)n[nH]1)c1ccncc1` (stereo not given) it was greater than 5 µM.
To `CN(C=O)c1ccc(C(=O)NCc2nc(-c3ccncc3)n[nH]2)cc1` belongs greater than 5 µM; to `Cc1cccc([N+](=O)[O-])c1C(=O)NCc1nc(-c2c[nH]c3ncccc23)n[nH]1`, greater than 5 µM.
In the case of `O=C(Cc1ccc2c(c1)OCO2)NCc1nc(-c2c[nH]c3ncccc23)n[nH]1` it was greater than 5 µM.
Consider `O=C(NCc1nc(-c2ccncc2)n[nH]1)C(Cl)(Cl)Cl`, for which the concentration for half-maximal inhibition (IC50) is greater than 5 µM.
On to `COc1cc(C(=O)NCc2nc(-c3ccncc3)n[nH]2)cc(OC)c1O`, for which the IC50 was greater than 5 µM.
Turning to `O=C(Cc1ccc(Br)cc1)NCc1nc(-c2c[nH]c3ncccc23)n[nH]1`, the IC50 was greater than 5 µM.
To `O=C(NCc1nc(-c2c[nH]c3ncccc23)n[nH]1)c1ccc2ncccc2c1` belongs greater than 5 µM.
To `CC(C)Cc1ccc(C(C)C(=O)NCc2nc(-c3ccncc3)n[nH]2)cc1` (stereo not given) belongs greater than 5 µM; to `O=C(NCc1nc(-c2ccncc2)n[nH]1)c1ccccc1[N+](=O)[O-]`, greater than 5 µM.
Compound `O=C(NCc1nc(-c2c[nH]c3ncccc23)n[nH]1)c1ccc(-c2ccc(O)cc2)cc1` gave an IC50 greater than 5 µM.
The compound `CCCCc1ccc(C(=O)NCc2nc(-c3c[nH]c4ncccc34)n[nH]2)cc1` displayed an IC50 greater than 5 µM.
In the case of `O=C(CCc1cccc(C(F)(F)F)c1)NCc1nc(-c2ccncc2)n[nH]1` it was no more than 5 µM; in that of `O=C(NCc1nc(-c2c[nH]c3ncccc23)n[nH]1)c1cccs1`, no more than 5 µM; in that of `CCN(CC)c1ccc(C(=O)NCc2nc(-c3c[nH]c4ncccc34)n[nH]2)cc1`, greater than 5 µM.
In the case of `Cc1c(C(=O)NCc2nc(-c3c[nH]c4ncccc34)n[nH]2)oc2ccccc12` it was greater than 5 µM; in that of `COc1cc(C(=O)NCc2nc(-c3c[nH]c4ncccc34)n[nH]2)cc(Cl)n1`, greater than 5 µM; in that of `O=C(NCc1nc(-c2c[nH]c3ncccc23)n[nH]1)C1=CCCC1`, greater than 5 µM.
As to `O=C(NCc1nc(-c2ccncc2)n[nH]1)c1cnc[nH]1`, the IC50 is greater than 5 µM.
To `O=C(NCc1nc(-c2ccncc2)n[nH]1)c1cc(F)c(F)cc1[N+](=O)[O-]` belongs greater than 5 µM; to `CN(C=O)c1ccc(C(=O)NCc2nc(-c3c[nH]c4ncccc34)n[nH]2)cc1`, greater than 5 µM.
To `CC(CC(=O)NCc1nc(-c2c[nH]c3ncccc23)n[nH]1)CC(C)(C)C` (stereo not given) belongs greater than 5 µM; to `O=C(NCc1nc(-c2ccncc2)n[nH]1)c1cc([N+](=O)[O-])ccc1Cl`, greater than 5 µM.
In the case of `CN(Cc1nc(-c2ccncc2)n[nH]1)C(=O)c1ccc(O)cc1O` it was greater than 5 µM; in that of `Cc1ccc(O)c(C(=O)NCc2nc(-c3c[nH]c4ncccc34)n[nH]2)c1`, greater than 5 µM; in that of `CC(C)Oc1ccc(C(=O)NCc2nc(-c3ccncc3)n[nH]2)cc1`, greater than 5 µM.
As for `Cc1ccc(C(=O)NCc2nc(-c3ccncc3)n[nH]2)cc1`, the IC50 is greater than 5 µM.
In the case of `O=C(NCc1nc(-c2c[nH]c3ncccc23)n[nH]1)c1cc2ccccc2o1` it was greater than 5 µM.
To `Cc1cccc(C(=O)NCc2nc(-c3c[nH]c4ncccc34)n[nH]2)c1` belongs greater than 5 µM; to `O=C(NCc1nc(-c2c[nH]c3ncccc23)n[nH]1)c1cccc(O)c1O`, greater than 5 µM.
In the case of `CC(C)(C)OC(=O)NCC(=O)NCc1nc(-c2ccncc2)n[nH]1` it was greater than 5 µM; in that of `O=C(NCc1nc(-c2ccncc2)n[nH]1)C1CCCCC1`, greater than 5 µM.
In the case of `Cc1ccc(O)c(C(=O)NCc2nc(-c3ccncc3)n[nH]2)c1`, the IC50 was greater than 5 µM.
For the compound `N#Cc1cccc(C(=O)NCc2nc(-c3ccncc3)n[nH]2)c1`, the IC50 is greater than 5 µM.
In the case of `O=C(NCc1nc(-c2ccncc2)no1)c1cccs1` it was greater than 5 µM; in that of `CC(C)(C)OC(=O)NC(Cc1ccc(O)cc1)C(=O)NCc1nc(-c2c[nH]c3ncccc23)n[nH]1` (stereo not given), greater than 5 µM.
To `COc1cc(C=CC(=O)NCc2nc(-c3ccncc3)n[nH]2)ccc1O` belongs greater than 5 µM.
In the case of `CS(=O)(=O)Nc1ccc(C(=O)NCc2nc(-c3ccncc3)n[nH]2)cc1` it was greater than 5 µM; in that of `CN(Cc1nc(-c2ccncc2)n[nH]1)C(=O)c1cccs1`, greater than 5 µM.
For the compound `O=C(NCc1nc(-c2c[nH]c3ncccc23)n[nH]1)c1ccc2ccccc2c1O`, the half-inhibitory concentration (IC50) is greater than 5 µM.
The compound `CS(=O)(=O)Nc1cccc(C(=O)NCc2nc(-c3ccncc3)n[nH]2)c1` showed an IC50 greater than 5 µM.
In the case of `O=C(NCc1nc(-c2c[nH]c3ncccc23)n[nH]1)c1ccccc1` it was greater than 5 µM; in that of `Cc1c(C(=O)NCc2nc(-c3ccncc3)n[nH]2)oc2ccccc12`, greater than 5 µM.
In the case of `O=C(NCc1nc(-c2ccncc2)n[nH]1)c1ccccn1` it was greater than 5 µM; in that of `c1ccc2c(NCc3nc(-c4ccncc4)n[nH]3)ncnc2c1`, greater than 5 µM; in that of `COc1cc(OC)cc(C(=O)NCc2nc(-c3ccncc3)n[nH]2)c1`, greater than 5 µM.
Regarding `O=C(NCc1nc(-c2ccncc2)n[nH]1)c1cc(O)ccc1O`, the IC50 was no more than 5 µM.
In the case of `O=C(NCc1nc(-c2ccncc2)n[nH]1)c1ccc(F)c([N+](=O)[O-])c1` it was greater than 5 µM; in that of `Cc1ccc(F)cc1C(=O)NCc1nc(-c2ccncc2)n[nH]1`, greater than 5 µM; in that of `CCCCCc1ccc(C(=O)NCc2nc(-c3ccncc3)n[nH]2)cc1`, greater than 5 µM.
To `O=C(NCc1nc(-c2ccncc2)n[nH]1)c1ccccc1C(=O)c1ccc(F)cc1` belongs greater than 5 µM.
In the case of `O=C(NCc1nc(-c2c[nH]c3ncccc23)n[nH]1)c1c(O)ccc2ccccc12` it was greater than 5 µM; in that of `O=C(NCc1nc(-c2c[nH]c3ncccc23)n[nH]1)c1cnc(O)c(Cl)c1`, greater than 5 µM; in that of `CC(C)(C)OC(=O)NCCCC(NC(=O)c1ccc(O)cc1O)c1nc(-c2ccncc2)n[nH]1` (stereo not given), no more than 5 µM.
On to `O=C(NCc1nc(-c2c[nH]c3ncccc23)n[nH]1)c1ccc(Cl)cc1Cl`, for which the IC50 is greater than 5 µM.
Compound `O=C(NCc1nc(-c2ccncc2)n[nH]1)c1ccc(O)cc1` registered an IC50 of no more than 5 µM.
To `O=C(NCc1nc(-c2ccncc2)n[nH]1)c1ccc(Cl)cc1[N+](=O)[O-]` belongs greater than 5 µM; to `CC(C(=O)NCc1nc(-c2c[nH]c3ncccc23)n[nH]1)c1ccc(-c2ccccc2)c(F)c1` (stereo not given), greater than 5 µM; to `CCCCCc1ccc(C(=O)NCc2nc(-c3c[nH]c4ncccc34)n[nH]2)cc1`, greater than 5 µM.
Compound `Cc1c(O)ccc(C(=O)NCc2nc(-c3ccncc3)n[nH]2)c1O` returned an IC50 of no more than 5 µM.
Regarding `Cc1ccccc1C(=O)NCc1nc(-c2ccncc2)n[nH]1`, the IC50 is greater than 5 µM.
To `O=C(NCc1nc(-c2c[nH]c3ncccc23)n[nH]1)c1ccccc1Cl` belongs greater than 5 µM; to `COc1ccc([N+](=O)[O-])c(C(=O)NCc2nc(-c3c[nH]c4ncccc34)n[nH]2)c1`, greater than 5 µM.
`O=C(NCc1nc(-c2ccncc2)n[nH]1)C1=CCCC1` yielded an IC50 greater than 5 µM.
`O=C(NCc1nc(-c2c[nH]c3ncccc23)n[nH]1)c1cccc([N+](=O)[O-])c1` came in with an IC50 greater than 5 µM.
In the case of `CC(C)(C)OC(=O)NC(Cc1ccccn1)C(=O)NCc1nc(-c2ccncc2)n[nH]1` (stereo not given) it was greater than 5 µM; in that of `CC(O)C(=O)NCc1nc(-c2c[nH]c3ncccc23)n[nH]1` (stereo not given), greater than 5 µM; in that of `O=C(NCc1nc(-c2c[nH]c3ncccc23)n[nH]1)c1ccncc1`, greater than 5 µM.
To `COc1ccc(C(=O)NCc2nc(-c3ccncc3)n[nH]2)c(O)c1` belongs no more than 5 µM; to `O=C(NCc1nc(-c2c[nH]c3ncccc23)n[nH]1)c1cccc(F)c1F`, greater than 5 µM.
`O=C(NCc1nc(-c2ccncc2)n[nH]1)c1cc(Cl)ccc1O`: the IC50 is greater than 5 µM.
To `O=C(CCc1ccccc1Br)NCc1nc(-c2ccncc2)n[nH]1` belongs greater than 5 µM.
To `O=C(NCc1nc(-c2ccncc2)n[nH]1)c1cccc2ccccc12` belongs greater than 5 µM.
Regarding `CC(NC(=O)OC(C)(C)C)C(=O)NCc1nc(-c2c[nH]c3ncccc23)n[nH]1` (stereo not given), the IC50 is greater than 5 µM.
In the case of `CCC(C)C(NC(=O)OC(C)(C)C)C(=O)NCc1nc(-c2ccncc2)n[nH]1` (stereo not given) it was greater than 5 µM; in that of `O=C(Cc1ccc(O)c(F)c1)NCc1nc(-c2ccncc2)n[nH]1`, greater than 5 µM; in that of `O=C(NCc1nc(-c2ccncc2)n[nH]1)c1ccnc(Cl)c1`, greater than 5 µM.
In the case of `O=C(c1cccs1)N1CCCC1c1nc(-c2ccncc2)n[nH]1` (stereo not given) it was greater than 5 µM; in that of `O=Cc1ccccc1OCC(=O)NCc1nc(-c2ccncc2)n[nH]1`, greater than 5 µM; in that of `O=C(NCc1nc(-c2ccncc2)n[nH]1)c1ccc(Cl)cc1O`, greater than 5 µM.
In the case of `Cc1nc(Br)sc1C(=O)NCc1nc(-c2ccncc2)n[nH]1` it was greater than 5 µM; in that of `O=C(NCc1nc(-c2c[nH]c3ncccc23)n[nH]1)c1cc(F)c(F)c(O)c1F`, greater than 5 µM.
With `CC(=O)NC(Cc1ccc(O)cc1)C(=O)NCc1nc(-c2ccncc2)n[nH]1` (stereo not given), the IC50 was greater than 5 µM.
